Assay results as given in ChEMBL document CHEMBL3745631, “Discovery of highly potent and selective Bruton's tyrosine kinase inhibitors: Pyridazinone analogs with improved metabolic stability” (Bioorg Med Chem Lett, 2016).

Tests used:
[1] = biological target: Ribosomal protein S6 kinase beta-1 (Homo sapiens) (UniProt P23443); assay: Inhibition of p70S6K (unknown origin) at 1 uM
[2] = biological target: Tyrosine-protein kinase Mer (Homo sapiens) (UniProt Q12866); assay: Inhibition of Mer (unknown origin) at 1 uM
[3] = biological target: Tyrosine-protein kinase ITK/TSK (Homo sapiens) (UniProt Q08881); assay: Inhibition of ITK (unknown origin) at 1 uM
[4] = biological target: Phosphorylase b kinase gamma catalytic chain, skeletal muscle/heart isoform (Homo sapiens) (UniProt Q16816); assay: Inhibition of PhK gamma1 (unknown origin) at 1 uM
[5] = biological target: Mitogen-activated protein kinase 9 (Homo sapiens) (UniProt P45984); assay: Inhibition of JNK2 (unknown origin) at 1 uM
[6] = biological target: Casein kinase I isoform gamma-1 (Homo sapiens) (UniProt Q9HCP0); assay: Inhibition of CK1 gamma1 (unknown origin) at 1 uM
[7] = biological target: Cyclin-dependent kinase 7/ cyclin H (Homo sapiens) (UniProt P51946+P50613); assay: Inhibition of CDK7/cyclinH (unknown origin) at 1 uM; type: protein-complex assay
[8] = biological target: Ribosomal protein S6 kinase alpha-1 (Homo sapiens) (UniProt Q15418); assay: Inhibition of Rsk1 (unknown origin) at 1 uM
[9] = biological target: Serine/threonine-protein kinase 16 (Homo sapiens) (UniProt O75716); assay: Inhibition of STK16 (unknown origin) at 1 uM
[10] = biological target: Mitogen-activated protein kinase 11 (Homo sapiens) (UniProt Q15759); assay: Inhibition of p38 beta (unknown origin) at 1 uM
[11] = biological target: MAP kinase-interacting serine/threonine-protein kinase 1 (Homo sapiens) (UniProt Q9BUB5); assay: Inhibition of MKNK1 (unknown origin) at 1 uM
Chain of MAP kinase-interacting serine/threonine-protein kinase 1 (Homo sapiens) (Q9BUB5 whole entry, looked up): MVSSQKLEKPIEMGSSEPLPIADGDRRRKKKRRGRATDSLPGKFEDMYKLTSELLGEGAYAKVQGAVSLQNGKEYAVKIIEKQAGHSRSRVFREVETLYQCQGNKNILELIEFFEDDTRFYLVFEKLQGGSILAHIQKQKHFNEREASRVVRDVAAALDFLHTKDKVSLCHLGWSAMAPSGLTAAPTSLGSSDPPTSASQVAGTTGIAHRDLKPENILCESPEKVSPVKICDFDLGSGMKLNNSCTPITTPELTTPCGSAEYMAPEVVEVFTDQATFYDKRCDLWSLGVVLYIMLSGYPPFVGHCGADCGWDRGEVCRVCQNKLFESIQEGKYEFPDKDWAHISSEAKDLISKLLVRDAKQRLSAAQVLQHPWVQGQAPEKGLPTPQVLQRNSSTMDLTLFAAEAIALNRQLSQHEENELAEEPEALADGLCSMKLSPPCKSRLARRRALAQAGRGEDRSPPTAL

Chain of Phosphorylase b kinase gamma catalytic chain, skeletal muscle/heart isoform (Homo sapiens) (Q16816 whole entry, looked up, canonical isoform): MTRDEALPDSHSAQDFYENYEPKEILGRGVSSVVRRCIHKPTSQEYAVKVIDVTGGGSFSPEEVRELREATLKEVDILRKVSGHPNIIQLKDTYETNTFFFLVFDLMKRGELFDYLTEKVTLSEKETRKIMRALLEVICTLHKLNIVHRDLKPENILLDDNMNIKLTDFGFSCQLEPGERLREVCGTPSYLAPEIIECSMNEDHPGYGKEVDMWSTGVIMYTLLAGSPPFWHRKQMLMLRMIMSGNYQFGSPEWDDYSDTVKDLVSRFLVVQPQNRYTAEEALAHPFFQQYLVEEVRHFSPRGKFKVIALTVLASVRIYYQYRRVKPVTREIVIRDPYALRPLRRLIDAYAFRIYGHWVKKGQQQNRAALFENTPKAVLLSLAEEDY
Chain of Ribosomal protein S6 kinase beta-1 (Homo sapiens) (P23443 whole entry, looked up): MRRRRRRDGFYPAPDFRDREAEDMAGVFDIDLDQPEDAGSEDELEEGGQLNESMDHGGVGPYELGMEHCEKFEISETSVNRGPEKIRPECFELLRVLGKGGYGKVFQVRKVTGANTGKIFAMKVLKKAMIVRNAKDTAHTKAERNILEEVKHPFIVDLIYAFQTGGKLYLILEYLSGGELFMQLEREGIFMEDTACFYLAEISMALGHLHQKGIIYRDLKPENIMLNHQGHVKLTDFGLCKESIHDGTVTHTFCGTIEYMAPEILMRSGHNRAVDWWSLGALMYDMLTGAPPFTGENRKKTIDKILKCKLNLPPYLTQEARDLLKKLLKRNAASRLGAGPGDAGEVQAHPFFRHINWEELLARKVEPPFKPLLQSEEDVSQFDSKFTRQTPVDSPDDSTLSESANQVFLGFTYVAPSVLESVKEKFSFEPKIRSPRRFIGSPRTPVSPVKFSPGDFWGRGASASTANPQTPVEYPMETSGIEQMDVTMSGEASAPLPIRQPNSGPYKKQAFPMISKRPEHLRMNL
Chain of Serine/threonine-protein kinase 16 (Homo sapiens) (O75716 whole entry): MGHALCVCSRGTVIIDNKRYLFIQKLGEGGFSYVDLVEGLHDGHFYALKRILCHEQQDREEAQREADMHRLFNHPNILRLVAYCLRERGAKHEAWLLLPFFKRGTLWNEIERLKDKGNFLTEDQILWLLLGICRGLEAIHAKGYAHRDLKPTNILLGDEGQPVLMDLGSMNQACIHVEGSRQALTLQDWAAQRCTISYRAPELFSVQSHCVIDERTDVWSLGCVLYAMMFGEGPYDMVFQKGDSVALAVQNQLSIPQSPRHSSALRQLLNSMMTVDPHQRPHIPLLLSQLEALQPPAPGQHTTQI
Chain of Tyrosine-protein kinase Mer (Homo sapiens) (Q12866 whole entry): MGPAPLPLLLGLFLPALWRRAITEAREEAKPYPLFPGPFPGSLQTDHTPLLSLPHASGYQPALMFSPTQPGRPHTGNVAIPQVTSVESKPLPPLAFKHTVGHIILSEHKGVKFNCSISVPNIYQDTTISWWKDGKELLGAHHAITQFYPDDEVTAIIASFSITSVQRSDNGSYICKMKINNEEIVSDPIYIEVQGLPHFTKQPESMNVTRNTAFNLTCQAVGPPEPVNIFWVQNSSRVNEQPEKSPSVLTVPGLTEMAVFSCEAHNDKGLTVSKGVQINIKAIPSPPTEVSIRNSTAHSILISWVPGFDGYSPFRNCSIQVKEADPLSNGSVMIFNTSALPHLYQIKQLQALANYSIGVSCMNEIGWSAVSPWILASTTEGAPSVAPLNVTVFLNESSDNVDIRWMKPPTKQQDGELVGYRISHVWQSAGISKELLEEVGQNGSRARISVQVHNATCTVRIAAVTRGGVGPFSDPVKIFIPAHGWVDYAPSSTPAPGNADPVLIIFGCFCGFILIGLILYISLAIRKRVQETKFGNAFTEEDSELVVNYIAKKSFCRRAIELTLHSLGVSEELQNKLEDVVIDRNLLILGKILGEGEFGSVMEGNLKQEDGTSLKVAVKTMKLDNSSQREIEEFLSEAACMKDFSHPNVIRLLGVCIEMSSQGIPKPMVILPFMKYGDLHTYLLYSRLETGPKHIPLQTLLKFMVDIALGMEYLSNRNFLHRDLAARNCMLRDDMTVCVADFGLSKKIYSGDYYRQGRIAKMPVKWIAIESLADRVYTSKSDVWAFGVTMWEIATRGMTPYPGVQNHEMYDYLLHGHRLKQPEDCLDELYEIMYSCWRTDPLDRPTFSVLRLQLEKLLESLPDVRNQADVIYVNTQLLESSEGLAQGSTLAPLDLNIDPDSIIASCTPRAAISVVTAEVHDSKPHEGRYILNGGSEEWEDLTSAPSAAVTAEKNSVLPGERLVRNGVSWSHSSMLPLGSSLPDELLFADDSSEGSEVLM
Chain of Mitogen-activated protein kinase 9 (Homo sapiens) (P45984 whole entry, looked up, canonical isoform): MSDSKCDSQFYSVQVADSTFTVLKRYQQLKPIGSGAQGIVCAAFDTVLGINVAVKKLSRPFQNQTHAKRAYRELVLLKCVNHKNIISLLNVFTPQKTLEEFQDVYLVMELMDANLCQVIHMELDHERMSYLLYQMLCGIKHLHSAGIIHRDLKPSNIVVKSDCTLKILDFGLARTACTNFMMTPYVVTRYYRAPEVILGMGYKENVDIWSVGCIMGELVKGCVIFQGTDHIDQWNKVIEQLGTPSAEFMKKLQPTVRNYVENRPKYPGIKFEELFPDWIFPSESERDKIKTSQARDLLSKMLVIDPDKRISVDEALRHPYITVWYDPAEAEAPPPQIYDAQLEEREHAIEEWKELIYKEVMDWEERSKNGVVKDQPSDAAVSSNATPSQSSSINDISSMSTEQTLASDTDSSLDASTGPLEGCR
Chain of Ribosomal protein S6 kinase alpha-1 (Homo sapiens) (Q15418 whole entry): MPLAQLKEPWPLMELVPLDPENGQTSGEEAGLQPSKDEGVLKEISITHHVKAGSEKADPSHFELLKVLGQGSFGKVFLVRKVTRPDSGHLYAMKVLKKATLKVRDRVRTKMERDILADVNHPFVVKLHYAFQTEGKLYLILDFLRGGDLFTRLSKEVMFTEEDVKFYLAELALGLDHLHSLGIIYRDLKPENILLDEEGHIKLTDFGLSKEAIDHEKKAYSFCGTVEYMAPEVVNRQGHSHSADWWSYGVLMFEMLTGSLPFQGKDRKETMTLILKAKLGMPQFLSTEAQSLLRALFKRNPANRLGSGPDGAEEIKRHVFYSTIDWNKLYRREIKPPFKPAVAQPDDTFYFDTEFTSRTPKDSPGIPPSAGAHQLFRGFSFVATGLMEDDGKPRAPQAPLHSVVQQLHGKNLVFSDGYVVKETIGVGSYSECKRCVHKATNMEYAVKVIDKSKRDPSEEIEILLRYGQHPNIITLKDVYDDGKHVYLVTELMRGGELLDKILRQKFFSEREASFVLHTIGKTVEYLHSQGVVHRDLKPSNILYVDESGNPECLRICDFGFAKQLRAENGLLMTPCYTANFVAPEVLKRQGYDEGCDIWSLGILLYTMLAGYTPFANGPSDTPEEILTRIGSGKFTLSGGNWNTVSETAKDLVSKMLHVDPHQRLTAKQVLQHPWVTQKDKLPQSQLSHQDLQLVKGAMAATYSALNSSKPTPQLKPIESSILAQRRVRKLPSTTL
Chain of Mitogen-activated protein kinase 11 (Homo sapiens) (Q15759 whole entry): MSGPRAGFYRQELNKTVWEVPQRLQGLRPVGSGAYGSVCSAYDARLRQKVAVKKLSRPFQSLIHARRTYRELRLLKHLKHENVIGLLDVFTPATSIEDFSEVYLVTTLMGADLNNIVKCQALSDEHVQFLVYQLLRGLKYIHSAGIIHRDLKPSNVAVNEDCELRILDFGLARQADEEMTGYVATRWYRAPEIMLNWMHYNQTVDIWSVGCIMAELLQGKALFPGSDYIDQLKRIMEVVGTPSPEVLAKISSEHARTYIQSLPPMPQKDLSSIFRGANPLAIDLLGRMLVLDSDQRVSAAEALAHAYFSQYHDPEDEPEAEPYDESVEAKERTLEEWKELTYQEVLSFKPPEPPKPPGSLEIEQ
Chain of Casein kinase I isoform gamma-1 (Homo sapiens) (Q9HCP0 whole entry, looked up, canonical isoform): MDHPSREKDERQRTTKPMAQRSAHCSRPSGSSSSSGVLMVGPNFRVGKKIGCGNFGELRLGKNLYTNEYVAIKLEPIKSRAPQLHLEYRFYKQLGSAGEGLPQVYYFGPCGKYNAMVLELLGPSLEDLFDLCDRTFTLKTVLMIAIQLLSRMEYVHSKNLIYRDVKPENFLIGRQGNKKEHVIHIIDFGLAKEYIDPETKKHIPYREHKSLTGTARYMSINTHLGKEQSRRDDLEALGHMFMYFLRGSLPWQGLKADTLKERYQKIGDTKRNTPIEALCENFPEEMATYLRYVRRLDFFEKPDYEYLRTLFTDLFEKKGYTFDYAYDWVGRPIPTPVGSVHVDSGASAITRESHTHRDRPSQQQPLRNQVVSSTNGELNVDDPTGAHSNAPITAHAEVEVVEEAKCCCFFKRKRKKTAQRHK

inhibition [1]: -2.8%
inhibition [2]: 3%
inhibition [3]: 38.3%
inhibition [4]: -1.2%
inhibition [5]: 1.8%
inhibition [6]: 6.2%
inhibition [7]: -7.7%
inhibition [8]: -0.4%
inhibition [9]: 11%
inhibition [10]: 8.7%
inhibition [11]: -2.8%
SMILES: Cc1c(-c2cc(Nc3cc4n(n3)CCN(C)C4)c(=O)[nH]n2)ccc(F)c1NC(=O)c1cc2ccccc2s1
